Laboratory results reported in patent publication US20210122730A1, “GLUCOCORTICOID RECEPTOR MODULATORS” (ORIC Pharmaceuticals, Inc., priority 2017, published 2021).

Biological target: T1, GR (Homo sapiens, UniProt P04150)
T1 construct: expressed in transfected cells; host or cells: CHO-K1
T1 sequence (P04150 1-777): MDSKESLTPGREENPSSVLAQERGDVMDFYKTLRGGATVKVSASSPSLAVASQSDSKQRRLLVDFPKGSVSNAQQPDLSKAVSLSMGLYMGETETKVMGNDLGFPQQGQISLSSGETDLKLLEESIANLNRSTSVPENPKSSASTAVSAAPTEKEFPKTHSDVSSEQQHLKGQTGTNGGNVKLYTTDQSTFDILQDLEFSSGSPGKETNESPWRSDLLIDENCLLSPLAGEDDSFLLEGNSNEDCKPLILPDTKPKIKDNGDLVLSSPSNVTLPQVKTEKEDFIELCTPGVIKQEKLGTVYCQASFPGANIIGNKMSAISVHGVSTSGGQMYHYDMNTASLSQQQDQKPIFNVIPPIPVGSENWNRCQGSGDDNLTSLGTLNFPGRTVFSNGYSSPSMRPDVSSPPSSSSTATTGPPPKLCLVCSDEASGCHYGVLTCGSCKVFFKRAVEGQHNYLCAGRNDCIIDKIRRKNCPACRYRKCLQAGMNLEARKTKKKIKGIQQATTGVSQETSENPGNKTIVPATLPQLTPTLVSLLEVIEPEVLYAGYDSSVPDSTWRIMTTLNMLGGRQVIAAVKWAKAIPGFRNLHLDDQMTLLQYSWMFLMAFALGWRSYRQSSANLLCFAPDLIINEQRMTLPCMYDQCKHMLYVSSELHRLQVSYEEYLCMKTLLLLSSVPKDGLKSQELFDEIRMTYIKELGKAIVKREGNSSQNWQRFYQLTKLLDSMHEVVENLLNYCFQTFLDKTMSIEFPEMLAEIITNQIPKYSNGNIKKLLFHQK
Assay: In Vitro GR Luciferase Reporter Assay (antagonist mode, CHO-K1-GR-MMTV-Luc reporter cells)
Format: cell-based
Conditions: antagonist mode, 10 nM Dexamethasone
Summary of the method: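 CHO-K1-GR-MMTV-Luc cells in phenol red-free DMEM with 10% CSS, stimulated with 10 nM dexamethasone (final) and treated with 8-point 1:5 compound dilutions for about 18-24 h at 37° C. Luciferase measured by OneGlo luminescence; IC50 derived for inhibition of GR activity.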

IC50, ≤ 100 nM:
Cn1cc(S(=O)(=O)[C@H]2CCC3=Cc4c(cnn4-c4ccc(F)cc4)C[C@]3(C(=O)c3ncc(C(F)(F)F)s3)C2)cn1 [Example 190, ((4aS,6S)-1-(4-fluorophenyl)-6-((1-methyl-1H-pyrazol-4-yl)sulfonyl)-1,4,5,6,7,8-hexahydro-4aH-benzo[f]indazol-4a-yl)(5-(trifluoromethyl)thiazol-2-yl)methanone]
CC(C)N([C@H]1CCC2=Cc3c(cnn3-c3ccc(F)cc3)C[C@]2(C(=O)c2ncc(C3CC3)s2)C1)S(=O)(=O)c1cnn(C)c1 [Example 192, N-((4aS,6S)-4a-(5-cyclopropylthiazole-2-carbonyl)-1-(4-fluorophenyl)-4,4a,5,6,7,8-hexahydro-1H-benzo[f]indazol-6-yl)-N-isopropyl-1-methyl-1H-pyrazole-4-sulfonamide]
Cn1ccc(C(=O)N(C2CC2)[C@H]2CCC3=Cc4c(cnn4-c4ccc(F)cc4)C[C@]3(C(=O)c3cc(C(F)(F)F)ccn3)C2)n1 [Example 197, N-cyclopropyl-N-((4aS,6S)-1-(4-fluorophenyl)-4a-(4-(trifluoromethyl)picolinoyl)-4,4a,5,6,7,8-hexahydro-1H-benzo[f]indazol-6-yl)-1-methyl-1H-pyrazole-3-carboxamide]
Cn1ncc(S(=O)(=O)N(CC2CC2)[C@H]2CCC3=Cc4c(cnn4-c4ccc(F)cc4)C[C@]3(C(=O)c3cc(C(F)(F)F)ccn3)C2)n1 [Example 200, N-(cyclopropylmethyl)-N-((4aS,6S)-1-(4-fluorophenyl)-4a-(4-(trifluoromethyl)picolinoyl)-4,4a,5,6,7,8-hexahydro-1H-benzo[f]indazol-6-yl)-2-methyl-2H-1,2,3-triazole-4-sulfonamide]
O=C(c1ncc(C(F)(F)F)s1)[C@]12Cc3cnn(-c4ccc(F)cc4)c3C=C1CC[C@H](N(C1COC1)S(=O)(=O)c1ccc(F)cc1)C2 [Example 205, 4-fluoro-N-((4aS,6S)-1-(4-fluorophenyl)-4a-(5-(trifluoromethyl)thiazole-2-carbonyl)-4,4a,5,6,7,8-hexahydro-1H-benzo[f]indazol-6-yl)-N-(oxetan-3-yl)benzenesulfonamide]
Cn1cc(S(=O)(=O)N(C2COC2)[C@H]2CCC3=Cc4c(cnn4-c4ccc(F)cc4)C[C@]3(C(=O)c3ncc(C(F)(F)F)s3)C2)cn1 [Example 207, N-((4aS,6S)-1-(4-fluorophenyl)-4a-(5-(trifluoromethyl)thiazole-2-carbonyl)-4,4a,5,6,7,8-hexahydro-1H-benzo[f]indazol-6-yl)-1-methyl-N-(oxetan-3-yl)-1H-pyrazole-4-sulfonamide]
CC(C)N([C@H]1CCC2=Cc3c(cnn3-c3ccc(F)cc3)C[C@]2(C(=O)c2ncc(C(F)(F)F)s2)C1)S(=O)(=O)c1ccc(Cl)cc1 [Example 208, 4-chloro-N-((4aS,6S)-1-(4-fluorophenyl)-4a-(5-(trifluoromethyl)thiazole-2-carbonyl)-4,4a,5,6,7,8-hexahydro-1H-benzo[f]indazol-6-yl)-N-isopropylbenzenesulfonamide]
CC(C)N([C@H]1CCC2=Cc3c(cnn3-c3ccc(F)cc3)C[C@]2(C(=O)c2ncc(C(F)(F)F)s2)C1)S(=O)(=O)c1ccc(F)cc1 [Example 209, 4-fluoro-N-((4aS,6S)-1-(4-fluorophenyl)-4a-(5-(trifluoromethyl)thiazole-2-carbonyl)-4,4a,5,6,7,8-hexahydro-1H-benzo[f]indazol-6-yl)-N-isopropylbenzenesulfonamide]
Cn1cc(S(=O)(=O)N(C2COC2)[C@H]2CCC3=Cc4c(cnn4-c4ccc(F)cc4)C[C@]3(C(=O)c3cc(C(F)(F)F)ccn3)C2)cn1 [Example 213, N-((4aS,6S)-1-(4-fluorophenyl)-4a-(4-(trifluoromethyl)picolinoyl)-4,4a,5,6,7,8-hexahydro-1H-benzo[f]indazol-6-yl)-1-methyl-N-(oxetan-3-yl)-1H-pyrazole-4-sulfonamide]
Cn1cc(S(=O)(=O)N(C2COC2)[C@H]2CCC3=Cc4c(cnn4-c4ccc(F)cc4)C[C@]3(C(=O)c3ncc(C(F)(F)F)s3)C2)nn1 [Example 218, N-((4aS,6S)-1-(4-fluorophenyl)-4a-(5-(trifluoromethyl)thiazole-2-carbonyl)-4,4a,5,6,7,8-hexahydro-1H-benzo[f]indazol-6-yl)-1-methyl-N-(oxetan-3-yl)-1H-1,2,3-triazole-4-sulfonamide]
Cn1cc(S(=O)(=O)N(C2COC2)[C@H]2CCC3=Cc4c(cnn4-c4ccc(F)cc4)C[C@]3(C(=O)c3cc(C(F)(F)F)ccn3)C2)nn1 [Example 220, N-((4aS,6S)-1-(4-fluorophenyl)-4a-(4-(trifluoromethyl)picolinoyl)-4,4a,5,6,7,8-hexahydro-1H-benzo[f]indazol-6-yl)-1-methyl-N-(oxetan-3-yl)-1H-1,2,3-triazole-4-sulfonamide]
Cn1cc(S(=O)(=O)N(C2CCC2)[C@H]2CCC3=Cc4c(cnn4-c4ccc(F)cc4)C[C@]3(C(=O)c3cc(C(F)(F)F)ccn3)C2)cn1 [Example 235, N-cyclobutyl-N-((4aS,6S)-1-(4-fluorophenyl)-4a-(4-(trifluoromethyl)picolinoyl)-4,4a,5,6,7,8-hexahydro-1H-benzo[f]indazol-6-yl)-1-methyl-1H-pyrazole-4-sulfonamide]
O=C(c1cc(C(F)(F)F)ccn1)[C@]12Cc3cnn(-c4ccc(F)cc4)c3C=C1CC[C@H](N(C1CCCC1)S(=O)(=O)c1ccc(F)cc1)C2 [Example 237, N-cyclopentyl-4-fluoro-N-((4aS,6S)-1-(4-fluorophenyl)-4a-(4-(trifluoromethyl)picolinoyl)-4,4a,5,6,7,8-hexahydro-1H-benzo[f]indazol-6-yl)benzenesulfonamide]
Cn1ccc(S(=O)(=O)N(C2CCCC2)[C@H]2CCC3=Cc4c(cnn4-c4ccc(F)cc4)C[C@]3(C(=O)c3cc(C(F)(F)F)ccn3)C2)n1 [Example 238, N-cyclopentyl-N-((4aS,6S)-1-(4-fluorophenyl)-4a-(4-(trifluoromethyl)picolinoyl)-4,4a,5,6,7,8-hexahydro-1H-benzo[f]indazol-6-yl)-1-methyl-1H-pyrazole-3-sulfonamide]
Cn1ncc(S(=O)(=O)N(C2COC2)[C@H]2CCC3=Cc4c(cnn4-c4ccc(F)cc4)C[C@]3(C(=O)c3cc(C(F)(F)F)ccn3)C2)n1 [Example 239, N-((4aS,6S)-1-(4-fluorophenyl)-4a-(4-(trifluoromethyl)picolinoyl)-4,4a,5,6,7,8-hexahydro-1H-benzo[f]indazol-6-yl)-2-methyl-N-(oxetan-3-yl)-2H-1,2,3-triazole-4-sulfonamide]
O=C(c1ccc(Cl)cn1)[C@]12Cc3cnn(-c4ccc(F)cc4)c3C=C1CC[C@H](N(C1CC1)S(=O)(=O)c1ccc(F)cc1)C2 [Example 240, N-((4aS,6S)-4a-(5-chloropicolinoyl)-1-(4-fluorophenyl)-4,4a,5,6,7,8-hexahydro-1H-benzo[f]indazol-6-yl)-N-cyclopropyl-4-fluorobenzenesulfonamide]
CC(C)CN([C@H]1CCC2=Cc3c(cnn3-c3ccc(F)cc3)C[C@]2(C(=O)c2cc(Cl)ccn2)C1)S(=O)(=O)c1ccn(C)n1 [Example 249, N-((4aS,6S)-4a-(4-chloropicolinoyl)-1-(4-fluorophenyl)-4,4a,5,6,7,8-hexahydro-1H-benzo[f]indazol-6-yl)-N-isobutyl-1-methyl-1H-pyrazole-3-sulfonamide]
CC(C)CN([C@H]1CCC2=Cc3c(cnn3-c3ccc(F)cc3)C[C@]2(C(=O)c2cc(F)ccn2)C1)S(=O)(=O)c1ccn(C)n1 [Example 252, N-((4aS,6S)-1-(4-fluorophenyl)-4a-(4-fluoropicolinoyl)-4,4a,5,6,7,8-hexahydro-1H-benzo[f]indazol-6-yl)-N-isobutyl-1-methyl-1H-pyrazole-3-sulfonamide]
O=C(c1cc(C(F)(F)F)ccn1)[C@]12Cc3cnn(-c4ccc(F)cc4)c3C=C1CC[C@H](N(C1CCC1)S(=O)(=O)c1ccn(C(F)F)n1)C2 [Example 253, N-cyclobutyl-1-(difluoromethyl)-N-((4aS,6S)-1-(4-fluorophenyl)-4a-(4-(trifluoromethyl)picolinoyl)-4,4a,5,6,7,8-hexahydro-1H-benzo[f]indazol-6-yl)-1H-pyrazole-3-sulfonamide]
